According to patent US20120121574A1, “ANTIMICROBIAL, ANTIVIRAL, ANTICANCER AND IMMUNOMODULATORY PEPTIDES AND USES THEREFORE” (priority 2010, published 2012):
Where no end group is shown, it is not given here.

How the values were obtained:
[1] = test system: C. albicans SC5314 strain
Method: In vitro activity of N10K against C. albicans SC5314 strain. The candidacidal activity of N10K peptide against C. albicans was assessed by a conventional colony forming unit (CFU) assay as previously described (Polonelli et al., 2003; Manfredi et al., 2005). Briefly, cells of C. albicans SC5314 were incubated at 37° C. for 6 hours (hr) in the presence of N10K at the concentration indicated of 20, 12.5 or 6.25 microgram/ml, or in distilled water as control (C). After incubation, cell suspensions were plated on Sabouraud dextrose agar and incubated at 30° C. for 48 hours when CFU were counted (** P<0.01 for N10K treated versus untreated cells, by t test). […]
The alanine-substituted derivatives (asd), defined according to the position held by the alanine-substituted aminoacid, were tested against C. albicans by a conventional colony forming unit (CFU) as previously described (Polonelli et al., 2003). Briefly, cells of C. albicans SC5314 were incubated at 37° C. for 6 hours in the presence of N10K or N10K asd at different scalar concentrations or distilled water as control. After incubation, cell suspensions were plated on Sabouraud dextrose agar and incubated at 30° C. for 48 hours when CFU were counted. Based on several independent replications, the EC50 value of each peptide was calculated by nonlinear regression analysis using Graph Pad Prism 4.01 software, San Diego, Calif., USA. […]
In vitro microbicidal activity of N10K derivative with 2 amino acid substitutions, or 80% sequence identity with native N10K, namely peptide Seq Id. No. 25 was tested against Candida albicans SC5314 as determined by Colony Forming Unit assay.

[2] = test system: Human monocytes; assay: in vitro immunomodulatory activity on human monocytes; format: cell-based; settings: 10 micrograms/ml, 18 hr, ELISA
Method: Human monocytes or PMN (both 10×10^6/ml) were incubated in RPMI 1640 plus 10% FCS for 18 hr or 6 hr respectively in the presence or in the absence (NS) of LPS, negative control (NC) and peptides (all 10 micrograms/ml). After incubation culture supernatants were collected and tested for cytokines production by specific ELISA. […] Monocytes were incubated for 30 minutes in presence or absence (NS) of NC or N10K (both 10 micrograms/ml) or Cytochalasin D (30 μM). After incubation cells have been stimulated for 30 minutes with non opsonized h.i. […] The percentage of phagocytosis (FIG. 18A) and the medium number of yeast particles adhered or ingested by each monocyte (phagocytic index) (FIG. 18B) have been determined by cytofluorimetric analysis. […] PBMC have been incubated 30 minutes in presence or absence (NS) of NC or N10K (both 10 micrograms/ml). After incubation PBMC have been stimulated for 18 h with LPS (10 micrograms/ml) or h.i. […] The levels of IL-12p40 and IL-6 have been evaluated in the supernatants by ELISA Kit.
After incubation culture supernatants were collected and tested for cytokines production by specific ELISA. […]

[3] = test system: C. albicans cells; assay: direct candidacidal activity in vitro (strain not stated); format: cell-based, Candida albicans
[4] = test system: E. coli ATCC 25922 strain; assay: CFU assay against E. coli; format: cell-based, Escherichia coli
[5] = test system: peritoneal murine macrophages (PM); assay: in vitro immunomodulatory activity on murine peritoneal macrophages (PM); format: cell-based, mouse
Method: In vitro immunomodulatory activity of MoA VHCDR3 on murine immune cells. FIGS. 47-51 are graphs showing TNF-α and IL-6 production by PM and PMN stimulated with MoA CDRs and mouse MoA VHCDR3 uptake by different cell populations. Cells were cultured in the presence or absence (NS) of human and/or mouse CDRs, lipopolisaccharide (LPS), or negative control peptide (NC) (all 10 micrograms/ml) for 18 hr. Both PM and PMN cell populations were 5×10^6/ml. After incubation, TNF-α and IL-6 levels were evaluated in culture supernatants by specific ELISA assays (* P<0.05 treated vs untreated cells, n=7). In FIG. 51, dendritic cells (DC), PM, PMN, and T cells (all 1×10^6/ml) were incubated for 1 hr in the presence or absence (NS) of biotinylated (b)-MoA VHCDR3 or b-NC (both 10 micrograms/ml). After incubation, permeabilized cells were reacted with FITC-labelled mAb to biotin (b) and analyzed by FACScan flow cytometry. Data are reported as the percentage of positive cells *, P<0.05 (b-VHCDR3 treated vs untreated cells, n=5). Error bars, s.e.m. FIGS. 52A and B show graphs and colored cell staining micrograph of kinetic of VHCDR3 uptake by PM. PM (1×10^6/ml) were incubated for different times with b-VHCDR3 or b-NC (all 10 micrograms/ml). After incubation, permeabilized cells were reacted with FITC-labelled mAb to biotin and analyzed by FACScan flow cytometry. Data are reported as the mean fluorescence intensity (MFI) and percentage of positive cells (FIG. 52A) (* P<0.05 b-VHCDR3-treated vs untreated cells, n=7). Error bars, s.e.m. In selected experiments, cells were incubated for 1 hr as above described, reacted with FITC-labelled mAb to biotin in the presence of Evans' Blue as a counter stain, and subsequently examined under fluorescent light microscopy (FIG. 52B). Note the green fluorescence of b-VHCDR3 treated cells. Original magnification 20×. In FIGS. 53 and 54 is shown the phospho-Akt activation and TNF-α production in PM stimulated with MoA VHCDR3. PM (3×10^6/ml) were stimulated for 1 hr in the presence or absence (NS) of MoA VHCDR3, LPS, an irrelevant control peptide (NC) or a scrambled peptide (SP) (all 10 micrograms/ml). After incubation, cell lysates were subjected to Western blotting. Membranes were incubated with Abs to pAkt and Akt; pAkt was normalized against Akt (FIG. 53)*, P<0.05 (treated vs untreated cells, n=5). […] PM (5×10^6/ml) were stimulated for 18 hr as above described. After incubation, TNF-α level was evaluated in culture supernatants by specific ELISA assays. (FIG. 54)*, P<0.05 (treated vs untreated cells, n=5). In FIGS. 55 and 56 is shown the phospho-IkBα activation and TNF-α gene expression in PM stimulated with MoA VHCDR3. PM (3×10^6/ml) were stimulated for 1 hr in the presence or absence (NS) of wortmannin (4 nM), MoA VHCDR3, LPS or NC (all 10 micrograms/ml). After incubation, cell lysates were subjected to Western blotting. Membranes were incubated with Abs to pIkBα and IkBα; pIkBα was normalized against IkBα. (FIG. 55)*, P<0.05 (treated versus untreated cells, n=5); †, P<0.05 (wortmannin-treated vs wortmannin-untreated cells, n=5). For testing the expression level of TNF-α gene, PM (1×10^6/ml) were cultured for 1, 6 and 18 hr as above described. After incubation, total RNA was isolated and analyzed for mRNA expression with RT-PCR (FIG. 56). Transcript copy numbers were determined by qPCR using cDNA as a template. Copy numbers were normalized against the copy number of the GADPH gene (B). […]

[6] = test system: K. pneumoniae ATCC 700603 strain; assay: CFU assay against K. pneumoniae; format: cell-based, Klebsiella pneumoniae
[7] = test system: P. aeruginosa ATCC 25853 strain; assay: CFU assay against P. aeruginosa; format: cell-based, Pseudomonas aeruginosa
[8] = test system: M. furfur 101 strain; assay: CFU assay against M. furfur; format: cell-based, Malassezia furfur
Method: After the incubation period, the cell suspensions were plated on Sabouraud dextrose agar added with Tween 20 (1%), then incubated at 30° C. and observed for CFU enumeration after 72 hours.
After the incubation period, the cell suspensions have been plated on Sabouraud dextrose agar added with Tween 20 (1%), then incubated at 30° C. and observed for CFU enumeration after 72 hours.

[9] = test system: C. albicans CA-6 strain; assay: murine model of systemic candidiasis; format: in vivo, Balb/c mice
Method: CFU recovery from the kidneys of mice was determined 7 and 12 days after fungal infection.
Mice were infected intravenously with the opportunistic fungus C. albicans and treated with mouse VHCDR3 or VLCDR3 (used as a negative control) intraperitoneally 4 hr before (200 micrograms), and 1 (100 micrograms) and 2 (100 micrograms) days after infection. Animal survival and fungal burden in kidneys were evaluated in different groups of mice. […] Error bars, s.e.m.

[10] = test system: A. fumigatus 1163 strain; assay: CFU assay against A. fumigatus conidia; format: cell-based, Aspergillus fumigatus
Method: After the incubation period, the conidial suspensions have been plated on Sabouraud dextrose agar, then incubated at 30° C. and observed for CFU enumeration after 48 hours.
After the incubation period, the cell suspensions have been plated on Sabouraud dextrose agar, then incubated at 30° C. and observed for CFU enumeration after 48 hours.

[11] = test system: S. aureus 29213 strain; assay: CFU assay against S. aureus; format: cell-based, Staphylococcus aureus
Method: (§1) In vitro activity of N10K against S. aureus 29213 strain. The microbicidal activity of N10K peptide against S. aureus has been evaluated by a conventional CFU assay. Cells of S. aureus 29213 have been incubated at 37° C. for 5 hours in the presence of N10K at the concentration of 50, 45 or 40 micrograms/ml, or in distilled water as control growth. After the incubation period, the cell suspensions have been plated on Mueller Hinton agar, then incubated at 37° C. and observed for CFU enumeration after 24 hours.
as §1, with “T11F” for “N10K”, “bactericidal” for “microbicidal”, “40” for “45”, “30” for “40”
In vitro activity of H4L against S. aureus 29213 strain. The bactericidal activity of H4L peptide against S. aureus has been evaluated by a conventional CFU) assay. […]
In vitro activity of MoA VHCDR3 against S. aureus 29213 strain. The microbicidal activity of MoA VHCDR3 peptide against S. aureus has been evaluated by a conventional CFU assay. […]

[12] = peptide 100 micrograms/ml, 5 hours 37° C.

## NAVSLTCLVK [asd Q2A N10K, N A V S L T C L V K]
[1]; SC5314, 6 h
  EC50: 2.31 µM
[1]; Table IX
  EC50asd/EC50N10K: 2.30
[2]
  IL-6 production by human monocytes: strong enhancement

## G Q Y G N L W F A Y (GQYGNLWFAY) [MoA VHCDR3, CDR3 fragment of the H chain of a murine IgM mAb directed to difucosyl human blood group A substance]
[3]
  activity against C. albicans cells in vitro: ineffective
[4]; Table III, in vitro
  Activity: cidal
[4]; [12]
  bactericidal activity (CFU): showed bactericidal activity
[5]; 10 micrograms/ml
  TLR-4 expression: up-regulates TLR-4
[5]; 10 micrograms/ml, 1 hr, Western blotting
  Akt activation (phospho-Akt): induces Akt activation
[5]; 10 micrograms/ml, ELISA
  TNF-α production by PM: stimulate PM to produce TNF-α
[5]; 1 hr post stimulation, 10 micrograms/ml
  TNF-α mRNA: detected
[5]; Table III, in vitro, Immune cells
  Activity (Stimulation of TNF-α, IL-6): Stimulation
[6]; Table III, in vitro
  Activity: cidal
[6]; [12]
  bactericidal activity (CFU): showed bactericidal activity
[7]; Table III, in vitro
  Activity: cidal
[7]; [12]
  bactericidal activity (CFU): showed bactericidal activity
[8]; Table III, in vitro
  Activity: cidal
[8]; peptide 100 micrograms/ml, 6 hours 30° C.
  fungicidal activity (CFU): showed fungicidal activity
[9]; Table III, in vivo, Fungus, for MoAVHCDR3 the wrapped cell reads Indirectly cidal up regulation of TNF-α, TLR-4
  Activity: Indirectly
[9]; intraperitoneally 200 micrograms 4 hr before, 100 micrograms 1 and 2 days after infection, 5, 7 and 12 days after infection, versus negative control mice
  CFU recovery from kidneys: impressive decrease
[9]; intraperitoneally 200 micrograms 4 hr before, 100 micrograms 1 and 2 days after infection, versus untreated or MoA VLCDR3 treated
  survival of infected mice: significant increase in survival
[10]; Table III, in vitro
  Activity: cidal
[10]; peptide 100 micrograms/ml, 18 hours 30° C.
  fungicidal activity (CFU): showed fungicidal activity
[11]; Table III, in vitro
  Activity: cidal
[11]; [12]
  bactericidal activity (CFU): showed bactericidal activity
